Patent EP3375430A1, “FRAGRANCE COMPOSITIONS” (Takasago International Corporation, priority 2017, dated 2018)
Values belong to the compound of their own block, whether it stands above or below them.

Experiments:
[1] = Headspace concentration of fragrance ingredients over blotter (thermal desorption GC-MS); format: physicochemical; details: fragrance TAK;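 as to headspace concentration in composition C1 compared to control EdT1: C1 is an invention composition and EdT1 a conventional EdT of fragrance TAK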
Method in brief: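 Fragrance (100µL) applied to a 10 cm perfumers' blotter held on a 32°C hot plate, equilibrated 5 min; headspace drawn through Tenax TA tubes at 17mL/min until 280mL collected, repeated at later sampling times. Tubes thermally desorbed splitless onto HP-5MS column, GC-MS detection, mass range 35 to 350.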

[2] = Amount of fragrance ingredients retained on paper blotter after evaporation (ethanol extraction, GC-MS); format: physicochemical
Method in brief: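 100 µL of fragrance formulation applied to paper blotters kept at 32°C open to air; at each time three blotters extracted 1 h in ethanol with methyl decanoate internal standard and analysed by GC-MS (HP-5MS, 50–280°C). Amounts averaged over triplicates and expressed as percent of time-zero level.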

[3] = Table 3, fragrance TAK in C1, 15 min, 32°C
[4] = Table 3, fragrance TAK in C1, 60 min, 32°C
[5] = Table 3, fragrance TAK in C1, 120 min, 32°C
[6] = Table 3, fragrance TAK in C1, 240 min, 32°C
[7] = Table 3, fragrance TAK in C1, 480 min, 32°C
[8] = Table 3, fragrance TAK in EdT1, 15 min, 32°C
[9] = Table 3, fragrance TAK in EdT1, 60 min, 32°C
[10] = Table 3, fragrance TAK in EdT1, 120 min, 32°C
[11] = Table 3, fragrance TAK in EdT1, 240 min, 32°C
[12] = Table 3, fragrance TAK in EdT1, 480 min, 32°C
[13] = Table 3, fragrance TAK in EdT1 or C1, T0, set at 100% (normalisation)
[14] = Table 4, fragrance TAK in C2, 15 min, 32°C
[15] = Table 4, fragrance TAK in C2, 480 min, 32°C
[16] = Table 4, fragrance TAK in EdT1, 15 min, 32°C
[17] = Table 4, fragrance TAK in EdT1, 480 min, 32°C
[18] = Table 4, fragrance TAK in EdT1 or C2, T0, set at 100% (normalisation)
[19] = Table 5, fragrance TAK in C3, 15 min, 32°C
[20] = Table 5, fragrance TAK in C3, 60 min, 32°C
[21] = Table 5, fragrance TAK in C3, 120 min, 32°C
[22] = Table 5, fragrance TAK in C3, 240 min, 32°C
[23] = Table 5, fragrance TAK in C3, 480 min, 32°C
[24] = Table 5, fragrance TAK in C3, 1440 min, 32°C
[25] = Table 5, fragrance TAK in EdT1, 15 min, 32°C
[26] = Table 5, fragrance TAK in EdT1, 60 min, 32°C
[27] = Table 5, fragrance TAK in EdT1, 120 min, 32°C
[28] = Table 5, fragrance TAK in EdT1, 240 min, 32°C
[29] = Table 5, fragrance TAK in EdT1, 480 min, 32°C
[30] = Table 5, fragrance TAK in EdT1, 1440 min, 32°C
[31] = Table 5, fragrance TAK in EdT1 or C3, T0, set at 100% (normalisation)
[32] = Table 6, fragrance TAK in C4, 15 min, 32°C
[33] = Table 6, fragrance TAK in C4, 60 min, 32°C
[34] = Table 6, fragrance TAK in C4, 120 min, 32°C
[35] = Table 6, fragrance TAK in C4, 240 min, 32°C
[36] = Table 6, fragrance TAK in C4, 480 min, 32°C
[37] = Table 6, fragrance TAK in EdT1, 15 min, 32°C
[38] = Table 6, fragrance TAK in EdT1, 60 min, 32°C
[39] = Table 6, fragrance TAK in EdT1, 120 min, 32°C
[40] = Table 6, fragrance TAK in EdT1, 240 min, 32°C
[41] = Table 6, fragrance TAK in EdT1, 480 min, 32°C
[42] = Table 6, fragrance TAK in EdT1 or C4, T0, set at 100% (normalisation)

headspace presence of ingredient ([1]; after 1 hour, both control EdT1 and composition C1, Figure 2): lost | amount of fragrance ingredient retained on blotter (percentage of the initial amount) [2, 3]: 18% | amount of fragrance ingredient retained on blotter (percentage of the initial amount) [2, 4]: 1% | amount of fragrance ingredient retained on blotter (percentage of the initial amount) [2, 5]: 1% | amount of fragrance ingredient retained on blotter (percentage of the initial amount) [2, 6]: 1% | amount of fragrance ingredient retained on blotter (percentage of the initial amount) [2, 7]: <1% | amount of fragrance ingredient retained on blotter (percentage of the initial amount) [2, 8]: 1% | amount of fragrance ingredient retained on blotter (percentage of the initial amount) [2, 9]: <1% | amount of fragrance ingredient retained on blotter (percentage of the initial amount) [2, 10]: <1% | amount of fragrance ingredient retained on blotter (percentage of the initial amount) [2, 11]: <1% | amount of fragrance ingredient retained on blotter (percentage of the initial amount) [2, 12]: <1% | amount of fragrance ingredient retained on blotter (percentage of the initial amount) [2, 13]: 100% | amount of fragrance ingredient retained on blotter (percentage of the initial amount) [2, 14]: 29% | amount of fragrance ingredient retained on blotter (percentage of the initial amount) [2, 15]: <1% | amount of fragrance ingredient retained on blotter (percentage of the initial amount) [2, 16]: 2% | amount of fragrance ingredient retained on blotter (percentage of the initial amount) [2, 17]: <1% | amount of fragrance ingredient retained on blotter (percentage of the initial amount) [2, 18]: 100% | amount of fragrance ingredient retained on blotter (percentage of the initial amount) [2, 19]: 19% | amount of fragrance ingredient retained on blotter (percentage of the initial amount) [2, 20]: <1% | amount of fragrance ingredient retained on blotter (percentage of the initial amount) [2, 21]: <1% | amount of fragrance ingredient retained on blotter (percentage of the initial amount) [2, 22]: <1% | amount of fragrance ingredient retained on blotter (percentage of the initial amount) [2, 23]: <1% | amount of fragrance ingredient retained on blotter (percentage of the initial amount) [2, 24]: <1% | amount of fragrance ingredient retained on blotter (percentage of the initial amount) [2, 25]: 1% | amount of fragrance ingredient retained on blotter (percentage of the initial amount) [2, 26]: <1% | amount of fragrance ingredient retained on blotter (percentage of the initial amount) [2, 27]: <1% | amount of fragrance ingredient retained on blotter (percentage of the initial amount) [2, 28]: <1% | amount of fragrance ingredient retained on blotter (percentage of the initial amount) [2, 29]: <1% | amount of fragrance ingredient retained on blotter (percentage of the initial amount) [2, 30]: <1% | amount of fragrance ingredient retained on blotter (percentage of the initial amount) [2, 31]: 100% | amount of fragrance ingredient retained on blotter (percentage of the initial amount) [2, 32]: 17% | amount of fragrance ingredient retained on blotter (percentage of the initial amount) [2, 33]: <1% | amount of fragrance ingredient retained on blotter (percentage of the initial amount) [2, 34]: 1% | amount of fragrance ingredient retained on blotter (percentage of the initial amount) [2, 35]: 1% | amount of fragrance ingredient retained on blotter (percentage of the initial amount) [2, 36]: 1% | amount of fragrance ingredient retained on blotter (percentage of the initial amount) [2, 37]: 1% | amount of fragrance ingredient retained on blotter (percentage of the initial amount) [2, 38]: <1% | amount of fragrance ingredient retained on blotter (percentage of the initial amount) [2, 39]: <1% | amount of fragrance ingredient retained on blotter (percentage of the initial amount) [2, 40]: <1% | amount of fragrance ingredient retained on blotter (percentage of the initial amount) [2, 41]: <1% | amount of fragrance ingredient retained on blotter (percentage of the initial amount) [2, 42]: 100% | amount of fragrance ingredient retained on blotter (percentage of the initial amount) ([2]; Table 9, fragrance COM1 in C5, T0 + 15 min): 11.32% | amount of fragrance ingredient retained on blotter (percentage of the initial amount) ([2]; Table 9, fragrance COM1 in C5, T0 + 480 min): <1% | amount of fragrance ingredient retained on blotter (percentage of the initial amount) ([2]; Table 9, fragrance COM1 in C5, T0 +1440 min): <1% | amount of fragrance ingredient retained on blotter (percentage of the initial amount) ([2]; Table 9, fragrance COM1 in C6, T0 + 15 min): 6.6% | amount of fragrance ingredient retained on blotter (percentage of the initial amount) ([2]; Table 9, fragrance COM1 in C6, T0 + 480 min): <1% | amount of fragrance ingredient retained on blotter (percentage of the initial amount) ([2]; Table 9, fragrance COM1 in C6, T0 +1440 min): <1% | amount of fragrance ingredient retained on blotter (percentage of the initial amount) ([2]; Table 9, fragrance COM1 in EdT2, C5 or C6, T0, set at 100% (normalisation)): 100% | amount of fragrance ingredient retained on blotter (percentage of the initial amount) ([2]; Table 9, fragrance COM1 in EdT2, T0 + 15 min): 1.33% | amount of fragrance ingredient retained on blotter (percentage of the initial amount) ([2]; Table 9, fragrance COM1 in EdT2, T0 + 480 min): <1% | amount of fragrance ingredient retained on blotter (percentage of the initial amount) ([2]; Table 9, fragrance COM1 in EdT2, T0 +1440 min): <1%
SMILES: C=C(C)[C@H]1CC=C(C)CC1 [Limonene]

headspace concentration in composition C1 compared to control EdT1 ([1]; T0 + 4h, Figure 3): significantly greater | headspace concentration in composition C14 compared to control EdT1 ([1]; T0+4h and T0+8h, Figures 17 and 18): significantly greater | headspace concentration in composition C15 compared to control EdT1 ([1]; T0+4h and T0+8h, Figures 20 and 21, difference significant for linalool, linalyl acetate and Verdox™): greater | headspace concentration in composition C1 compared to control EdT1 ([1]; T0 + 8h, Figure 4): much greater | headspace concentration in composition C1 compared to control EdT1 ([1]; after 1 hour, Figure 2): greater | amount of fragrance ingredient retained on blotter (percentage of the initial amount) [2, 3]: 80% | amount of fragrance ingredient retained on blotter (percentage of the initial amount) [2, 4]: 61% | amount of fragrance ingredient retained on blotter (percentage of the initial amount) [2, 5]: 35% | amount of fragrance ingredient retained on blotter (percentage of the initial amount) [2, 6]: 13% | amount of fragrance ingredient retained on blotter (percentage of the initial amount) [2, 7]: 3% | amount of fragrance ingredient retained on blotter (percentage of the initial amount) [2, 8]: 57% | amount of fragrance ingredient retained on blotter (percentage of the initial amount) [2, 9]: 9% | amount of fragrance ingredient retained on blotter (percentage of the initial amount) [2, 10]: 1% | amount of fragrance ingredient retained on blotter (percentage of the initial amount) [2, 11]: 1% | amount of fragrance ingredient retained on blotter (percentage of the initial amount) [2, 12]: <1% | amount of fragrance ingredient retained on blotter (percentage of the initial amount) [2, 13]: 100% | amount of fragrance ingredient retained on blotter (percentage of the initial amount) [2, 14]: 92% | amount of fragrance ingredient retained on blotter (percentage of the initial amount) [2, 15]: 4% | amount of fragrance ingredient retained on blotter (percentage of the initial amount) [2, 16]: 58% | amount of fragrance ingredient retained on blotter (percentage of the initial amount) [2, 17]: 3% | amount of fragrance ingredient retained on blotter (percentage of the initial amount) [2, 18]: 100% | amount of fragrance ingredient retained on blotter (percentage of the initial amount) [2, 19]: 85% | amount of fragrance ingredient retained on blotter (percentage of the initial amount) [2, 20]: 61% | amount of fragrance ingredient retained on blotter (percentage of the initial amount) [2, 21]: 37% | amount of fragrance ingredient retained on blotter (percentage of the initial amount) [2, 22]: 18% | amount of fragrance ingredient retained on blotter (percentage of the initial amount) [2, 23]: 3% | amount of fragrance ingredient retained on blotter (percentage of the initial amount) [2, 24]: 1% | amount of fragrance ingredient retained on blotter (percentage of the initial amount) [2, 25]: 57% | amount of fragrance ingredient retained on blotter (percentage of the initial amount) [2, 26]: 9% | amount of fragrance ingredient retained on blotter (percentage of the initial amount) [2, 27]: 1% | amount of fragrance ingredient retained on blotter (percentage of the initial amount) [2, 28]: <1% | amount of fragrance ingredient retained on blotter (percentage of the initial amount) [2, 29]: <1% | amount of fragrance ingredient retained on blotter (percentage of the initial amount) [2, 30]: <1% | amount of fragrance ingredient retained on blotter (percentage of the initial amount) [2, 31]: 100% | amount of fragrance ingredient retained on blotter (percentage of the initial amount) [2, 32]: 81% | amount of fragrance ingredient retained on blotter (percentage of the initial amount) [2, 33]: 61% | amount of fragrance ingredient retained on blotter (percentage of the initial amount) [2, 34]: 28% | amount of fragrance ingredient retained on blotter (percentage of the initial amount) [2, 35]: 13% | amount of fragrance ingredient retained on blotter (percentage of the initial amount) [2, 36]: 8% | amount of fragrance ingredient retained on blotter (percentage of the initial amount) [2, 37]: 57% | amount of fragrance ingredient retained on blotter (percentage of the initial amount) [2, 38]: 9% | amount of fragrance ingredient retained on blotter (percentage of the initial amount) [2, 39]: 1% | amount of fragrance ingredient retained on blotter (percentage of the initial amount) [2, 40]: <1% | amount of fragrance ingredient retained on blotter (percentage of the initial amount) [2, 41]: <1% | amount of fragrance ingredient retained on blotter (percentage of the initial amount) [2, 42]: 100%
SMILES: C=CC(C)(O)CCC=C(C)C (stereo not drawn) [Linalool]
